Laboratory results published in patent US10799456B2, “Multiple drug lipid nanoparticle composition and related methods for extended drug levels in blood and lymph tissue” (priority 2015, dated 2020).
Read-outs that look alike come from different tables or passages of the source.

Experiments:
[1] = Plasma time course of ATV/RTV/TFV lipid nanoparticles in primates; format: in vivo, Macaca nemestrina; conditions: for AUC fraction (% total) 8-168 h: male, Macaca nemestrina, in vivo, sc
Protocol: All animal procedures were performed under an approved protocol reviewed by the University of Washington Institutional Animal Care and Use Committee. […] ATV, RTV, and TFV in the plasma were extracted in duplicate and analyzed with a liquid chromatography-mass spectrometry assay with a validated reverse phase HPLC/MS/MS method, similar to that of lopinavir (LPV), RTV, and TFV. […] Antimicrobial agents and chemotherapy. 2014. The linear trapezoidal method was used to calculate the area under the plasma drug concentration-time curve (AUC) for ATV, RTV, and TFV during the time course, which was close to 168 h post-dosing. […] All drugs in buffer and plasma were analyzed using a validated HPLC/MS/MS analytical method, capable of analyzing […], and TFV. The one-step analysis for LPV, RTV, and TFV was published previously. […] Antimicrobial agents and chemotherapy. 2014. Briefly, the HPLC system was outfitted with a Shimadzu 20AD HPLC (Shimadzu Scientific Instruments, Inc., Pleasanton, Calif.). […] Multiple reaction monitoring (MRM) was used to detect transition ions from a specific precursor ion to product ion. The analytes were detected using the following m/z transitions: 705.5/168.2 for ATV, 548.3/392.3 for DRV, 721.3/296.1 for RTV, 288.1/176 for TFV, and 238.1/193.2 for cyheptamide.

[2] = Storage stability at 4° C. (fraction of drug bound, dialysis); format: physicochemical
Protocol: To test the long-term stability, the multi-drug nanoparticles were stored under refrigeration at 4° C. and were tested for stability after a prolonged period. The lipid-drug combination particles are stable as determined by both particle size and degree of drug association (Table 12). […] Even the hydrophilic compound, which readily diffuses out of most lipid particles in a number of hours, loses a remarkably low fraction of the associated drug after 8, 12, and 17 months in storage. This exceptional stability provides a substantial advantage for translation to clinical application.

HIV-2(287) replication = assay: Antiviral activity in HIV-infected CEM-174 cells; format: cell-based
Protocol: The antiviral activity of the three-drug combination in soluble or LNP form was evaluated in HIV-infected CEM-174 cells as described previously. […] J Acquir Immune Defic Syndr 2003; 34(4):387-397, incorporated herein by reference in its entirety. […] The dose of drugs added to cells represents the sum of bound and unbound drugs in these anti-HIV LNP formulations.

in vivo = conditions: for concentration at 24 h: sc, Mean drug concentration, Plasma; for LNP/free ratio of plasma AUC 0-168: increase in total drug exposure, fold
From the text: Four young adult male macaques (Macaca nemestrina, 2.9-4.0 kg) were housed and cared for by the Washington National Primate Research Center (WaNPRC) under an approved Institutional Animal Care and Use Committee protocol.
The vehicle for the first suspension was bicarbonate-buffered saline with 3% ethanol and 0.2% bovine serum albumin. The vehicle for the second suspension was bicarbonate-buffered saline with 8% DMSO and 0.1% Tween 20.
Four macaques were divided into two treatment groups (two animals per group). […] Data were normalized to the anti-HIV LNP dose for comparative analysis.
Plasma was removed, PBMCs were isolated by the density gradient method, and cells were aliquoted into pellets of approximately 2 million PBMCs each. An inguinal lymph node was surgically excised 24 h after drug administration (n=2 per treatment), LNMCs were isolated by passage through a 100-lm nylon cell strainer (Corning, Tewksbury, Mass.), and cells were aliquoted into pellets of approximately 1-2 million LNMCs each. All samples were stored at −80° C. prior to drug analysis.
Plasma concentrations of all three drugs were analyzed simultaneously by liquid chromatography-tandem mass spectrometry using a recently published method. […] Antimicrob Agents Chemother 2014; 58(5):2675-2680, incorporated herein by reference in its entirety. PBMC and LNMC pellets were lysed using 200 μl water/methanol (1:1 v/v), sonicated for 10 min, and then extracted and analyzed using the same method as cited above. Intracellular concentrations were converted to ng/ml with the assumption that each cell has a volume of 4×10^−9 ml. Alberts B, Johnson A, Lewis J, et al. Molecular Biology of the Cell, 4 ed. Garland Science, New York, 2002, incorporated herein by reference in its entirety.
Data were analyzed by paired two-tailed Student's t-test with p<0.05 considered statistically significant.

HIV-1 = assay: microbe, parasite or virus in culture
[3] = Drug incorporation efficiency into lipid-drug nanoparticles (dialysis); format: physicochemical; conditions: LNPs with ATV + RTV + TFV (2:1:3); for Incorporation efficiency (%): laboratory 0.2 mL scale; for Incorporation efficiency (%) / Drug incorporation (% total): preclinical 45 mL scale
Protocol: J Acquir Immune Defic Syndr. […] Journal of pharmaceutical sciences. […] The AAPS journal. […] Residual solvent was removed overnight by vacuum desiccation. The dried lipid-drug film was then rehydrated with 0.9% NaCl containing 20 mM sodium bicarbonate (pH 7.4). The lipid-drug samples were allowed to hydrate at 60° C. for 2 h. Then samples were sonicated (laboratory scale) or homogenized (preclinical scale) to achieve a homogenous suspension.
The incorporation efficiency was calculated as the ratio of the amount of incorporated drug over the total amount of drug loaded multiplied by 100%.

[4] = literature, cited from earlier work
[5] = Plasma drug exposure of three multi-drug lipid formulations vs free drug in primates; conditions: for Lipid/Free Ratio: total AUC
[6] = Human immunodeficiency virus 2, CEM174, LPV:RTV:PMPA fixed 1:1:0.5 (m/m/m), LNP form, read-out: EC50 (nM), Drug-lipid nanoparticles with 3 drug combination
[7] = Human immunodeficiency virus 2, CEM174, LPV:RTV:PMPA fixed 1:1:0.5 (m/m/m), free form, read-out: EC50 (nM), Soluble 3 drug combination
[8] = male, Macaca nemestrina, in vivo
[9] = male, Macaca nemestrina, in vivo, Anti-HIV LNP treatment
[10] = male, Macaca nemestrina, in vivo, Free drug treatment
[11] = Human immunodeficiency virus 1, read-out: EC50 in LNP form
[12] = Human immunodeficiency virus 1, read-out: EC50 in free form
[13] = plasma, listed as Tenofovir (PMPA)

## CC(C)c1nc(CN(C)C(=O)N[C@H](C(=O)N[C@@H](Cc2ccccc2)C[C@H](O)[C@H](Cc2ccccc2)NC(=O)OCc2cncs2)C(C)C)cs1 [Ritonavir (RTV), Ritonavir]
[1]
  AUC fraction (% total) 8-168 h: 80.4%
[1]; plasma, average of two primates, sc ATV/RTV/TFV LNPs 25/12.8/15.3 mg/kg
  AUC 0-8 h: 339.1 ng·h/mL
[2]; 0 months
  Fraction of drug bound in multi-drug nanoparticles (% total): 88.30 ± 7.38%
[2]; 8 months
  Fraction of drug bound in multi-drug nanoparticles (% total): 93.01 ± 7.70%
[2]; 12 months
  Fraction of drug bound in multi-drug nanoparticles (% total): 94.91 ± 13.66%
[2]; 17 months, one batch
  Fraction of drug bound in multi-drug nanoparticles (% total): 90.50%
HIV-2(287) replication; [6]
  EC50: 3 ± 0.8 nM
HIV-2(287) replication; [7]
  EC50: 98 ± 0.3 nM
HIV-2(287) replication; Human immunodeficiency virus 2, CEM174, read-out: EC50 (nM), Single agent controls, single agent
  EC50: 530 ± 0.2 nM
HIV-2(287) replication; read-out: EC50 (nM), Single agent controls, single agent
  EC50: 1040 nM
In vivo; [8]
  AUC 0-8 (%) of total, LNP: 11.3%
  AUC 8-168 (%) of total, LNP: 88.7%
  AUC fraction (% of total) Anti-HIV LNP 24-168 h: 57.0 ± 12.5%
In vivo; [9]
  concentration at 24 h: 164 ± 116 ng/mL
In vivo; [10]
  concentration at 24 h: 5.9 ± 9.3 ng/mL
HIV-1; [11]
  EC50: 30 ± 0.8 nM
HIV-1; [12]
  EC50: 98 ± 0.3 nM

## C[C@H](Cn1cnc2c(N)ncnc21)OCP(=O)(O)O [Tenofovir (TFV), [(2R)-1-(6-aminopurin-9-yl)propan-2-yl]oxymethylphosphonic acid]
[1]
  AUC fraction (% total) 8-168 h: 97.4%
[2]; 0 months
  Fraction of drug bound in multi-drug nanoparticles (% total): 9.32 ± 3.79%
[2]; 8 months
  Fraction of drug bound in multi-drug nanoparticles (% total): 7.72 ± 2.95%
[2]; 12 months
  Fraction of drug bound in multi-drug nanoparticles (% total): 8.79 ± 0.92%
[2]; 17 months, one batch
  Fraction of drug bound in multi-drug nanoparticles (% total): 7.30%
[3]
  Incorporation efficiency (%): 2.4 ± 0.1%
  Incorporation efficiency (%) / Drug incorporation (% total): 6.1 ± 0.8%
[3]; listed as TFV
  Incorporation efficiency (%): about 2.4%
[3]; listed as tenofovir
  Incorporation efficiency (%) / Drug incorporation (% total): 6.1±0.8%
HIV-2(287) replication; [6]
  EC50: 1.5 ± 0.1 nM
HIV-2(287) replication; [7]
  EC50: 49 ± 0.2 nM
HIV-2(287) replication; read-out: EC50 (nM), Single agent controls, single agent, listed as PMPA
  EC50: 1150 ± 0.7 nM
HIV-2(287) replication; read-out: EC50 (nM), Single agent controls, single agent, listed as Tenofovir (PMPA/TFV)
  EC50: 100 to 6000 nM
[4]; double emulsion nano-precipitate method
  final % drug association: less than 3%
[4]; phosphatidylcholine with stearylamine, particles up to ˜2000 nm
  association of hydrophilic drug: 70%
In vivo; 0-168 h
  AUC LNP/free ratio: 7.0
In vivo; 24 h
  Ratio comparison between treatments (LNP/free), Plasma: 3992.8
In vivo
  LNP/free ratio of plasma AUC 0-168: 7.0
In vivo; listed as TFV
  LNP/free ratio of plasma AUC 0-168: 7
In vivo; [8]
  AUC 0-8 (%) of total, LNP: 9.1%
  AUC 8-168 (%) of total, LNP: 90.9%
In vivo; [9]
  concentration at 24 h: 3600 ± 3510 ng/mL
In vivo; [10]
  concentration at 24 h: 0.9 ± 1.1 ng/mL
In vivo; plasma
  AUC fraction (% of total) Anti-HIV LNP 0-24 h: 48.8 ± 33.7%
  AUC fraction (% of total) Free drug 0-24 h: 99.9 ± 0.2%
In vivo; plasma, sc 25/14.3/17.1 mg/kg LPV/RTV/PMPA, four animals
  AUC Free drug 0-168 h: 56600 ± 17040 ng·h/mL
In vivo; plasma, listed as PMPA
  AUC fraction (% of total) Anti-HIV LNP 24-168 h: 51.2%
  AUC fraction (% of total) Free drug 24-168 h: 0.1%
In vivo; [13]
  AUC fraction (% of total) Anti-HIV LNP 24-168 h: 51.2 ± 33.7%
  AUC fraction (% of total) Free drug 24-168 h: 0.1 ± 0.2%
[5]; ATZ/RTV/TFV combination
  Lipid/Free Ratio: 25.2
[5]; LPV/RTV/TFV combination
  Lipid/Free Ratio: 13.1
[5]; across drug combinations
  fold increase in plasma exposure, lipid-stabilized vs free drug: 10- to 20 fold
HIV-1; [11]
  EC50: 15 ± 0.1 nM
HIV-1; [12]
  EC50: 49 ± 0.2 nM
